The series in a line: Buffering capacity. The class given is physicochemical.

On to `O=C([O-])[O-].[Ca+2]` [CaCO3], for which the “buffering capacity, mekvH+/kg sample” value was 14850 mekvH+/kg sample.
Take `O=S(=O)([O-])[O-].[Ca+2]` [CaSO4]: the “buffering capacity, mekvH+/kg sample” value was found to be 50 mekvH+/kg sample.
